Three compounds from ChEMBL document CHEMBL5727267, “Compounds useful as inhibitors of ATR kinase” (2019) can be followed below.

pKi: −log10 of the molar value.

By pKi is commonly meant the negative decadic logarithm of the Ki, by convention in mol/L.

For the assay, the target named is Serine/threonine-protein kinase ATR (Homo sapiens, UniProt Q13535). The experiment in a line: Inhibition Assay: Compounds were screened for their ability to inhibit ATR kinase using a radioactive-phosphate incorporation assay. Assays were carried out in a mixture of 50 mM Tris/HCl (pH 7.5), 10 mM MgCl2 and 1 mM DTT. Final substrate concentrations were 10 μM [γ-33P]ATP (3mCi 33P ATP/mmol ATP, Perkin Elmer) and 800 μM target peptide ([…]) (SEQ ID NO:1).Assays were carried out at 25° C. in the presence of 5 nM full-length ATR. An assay stock buffer solution was prepared containing all of the reagents listed above, with the exception of ATP and the test compound of interest. 13.5 μL of the stock solution was placed in a 96 well plate followed by addition of 2 μL of DMSO stock containing serial dilutions of the test compound (typically starting from a final concentration of 15 μM with 3-fold serial dilutions) in duplicate (final DMSO concentration 7%). The plate was pre-incubated for 10 minutes at 25° C. and the reaction initiated by addition of 15 μL [γ-33P]ATP (final concentration 10 μM).The reaction was stopped after 24 hours by the addition of 30 μL 0.1M phosphoric acid containing 2 mM ATP. A multiscreen phosphocellulose filter 96-well plate (Millipore, Cat no. MAPHN0B50) was pretreated with 100 μL 0.2M phosphoric acid prior to the addition of […] of the stopped assay mixture. The plate was washed with 5×200 μL 0.2M phosphoric acid. After drying, 100 μL Optiphase ‘SuperMix’ liquid scintillation cocktail (Perkin Elmer) was added to the well prior to scintillation counting (1450 Microbeta Liquid Scintillation Counter, Wallac).
Chain of Serine/threonine-protein kinase ATR (Q13535 whole entry): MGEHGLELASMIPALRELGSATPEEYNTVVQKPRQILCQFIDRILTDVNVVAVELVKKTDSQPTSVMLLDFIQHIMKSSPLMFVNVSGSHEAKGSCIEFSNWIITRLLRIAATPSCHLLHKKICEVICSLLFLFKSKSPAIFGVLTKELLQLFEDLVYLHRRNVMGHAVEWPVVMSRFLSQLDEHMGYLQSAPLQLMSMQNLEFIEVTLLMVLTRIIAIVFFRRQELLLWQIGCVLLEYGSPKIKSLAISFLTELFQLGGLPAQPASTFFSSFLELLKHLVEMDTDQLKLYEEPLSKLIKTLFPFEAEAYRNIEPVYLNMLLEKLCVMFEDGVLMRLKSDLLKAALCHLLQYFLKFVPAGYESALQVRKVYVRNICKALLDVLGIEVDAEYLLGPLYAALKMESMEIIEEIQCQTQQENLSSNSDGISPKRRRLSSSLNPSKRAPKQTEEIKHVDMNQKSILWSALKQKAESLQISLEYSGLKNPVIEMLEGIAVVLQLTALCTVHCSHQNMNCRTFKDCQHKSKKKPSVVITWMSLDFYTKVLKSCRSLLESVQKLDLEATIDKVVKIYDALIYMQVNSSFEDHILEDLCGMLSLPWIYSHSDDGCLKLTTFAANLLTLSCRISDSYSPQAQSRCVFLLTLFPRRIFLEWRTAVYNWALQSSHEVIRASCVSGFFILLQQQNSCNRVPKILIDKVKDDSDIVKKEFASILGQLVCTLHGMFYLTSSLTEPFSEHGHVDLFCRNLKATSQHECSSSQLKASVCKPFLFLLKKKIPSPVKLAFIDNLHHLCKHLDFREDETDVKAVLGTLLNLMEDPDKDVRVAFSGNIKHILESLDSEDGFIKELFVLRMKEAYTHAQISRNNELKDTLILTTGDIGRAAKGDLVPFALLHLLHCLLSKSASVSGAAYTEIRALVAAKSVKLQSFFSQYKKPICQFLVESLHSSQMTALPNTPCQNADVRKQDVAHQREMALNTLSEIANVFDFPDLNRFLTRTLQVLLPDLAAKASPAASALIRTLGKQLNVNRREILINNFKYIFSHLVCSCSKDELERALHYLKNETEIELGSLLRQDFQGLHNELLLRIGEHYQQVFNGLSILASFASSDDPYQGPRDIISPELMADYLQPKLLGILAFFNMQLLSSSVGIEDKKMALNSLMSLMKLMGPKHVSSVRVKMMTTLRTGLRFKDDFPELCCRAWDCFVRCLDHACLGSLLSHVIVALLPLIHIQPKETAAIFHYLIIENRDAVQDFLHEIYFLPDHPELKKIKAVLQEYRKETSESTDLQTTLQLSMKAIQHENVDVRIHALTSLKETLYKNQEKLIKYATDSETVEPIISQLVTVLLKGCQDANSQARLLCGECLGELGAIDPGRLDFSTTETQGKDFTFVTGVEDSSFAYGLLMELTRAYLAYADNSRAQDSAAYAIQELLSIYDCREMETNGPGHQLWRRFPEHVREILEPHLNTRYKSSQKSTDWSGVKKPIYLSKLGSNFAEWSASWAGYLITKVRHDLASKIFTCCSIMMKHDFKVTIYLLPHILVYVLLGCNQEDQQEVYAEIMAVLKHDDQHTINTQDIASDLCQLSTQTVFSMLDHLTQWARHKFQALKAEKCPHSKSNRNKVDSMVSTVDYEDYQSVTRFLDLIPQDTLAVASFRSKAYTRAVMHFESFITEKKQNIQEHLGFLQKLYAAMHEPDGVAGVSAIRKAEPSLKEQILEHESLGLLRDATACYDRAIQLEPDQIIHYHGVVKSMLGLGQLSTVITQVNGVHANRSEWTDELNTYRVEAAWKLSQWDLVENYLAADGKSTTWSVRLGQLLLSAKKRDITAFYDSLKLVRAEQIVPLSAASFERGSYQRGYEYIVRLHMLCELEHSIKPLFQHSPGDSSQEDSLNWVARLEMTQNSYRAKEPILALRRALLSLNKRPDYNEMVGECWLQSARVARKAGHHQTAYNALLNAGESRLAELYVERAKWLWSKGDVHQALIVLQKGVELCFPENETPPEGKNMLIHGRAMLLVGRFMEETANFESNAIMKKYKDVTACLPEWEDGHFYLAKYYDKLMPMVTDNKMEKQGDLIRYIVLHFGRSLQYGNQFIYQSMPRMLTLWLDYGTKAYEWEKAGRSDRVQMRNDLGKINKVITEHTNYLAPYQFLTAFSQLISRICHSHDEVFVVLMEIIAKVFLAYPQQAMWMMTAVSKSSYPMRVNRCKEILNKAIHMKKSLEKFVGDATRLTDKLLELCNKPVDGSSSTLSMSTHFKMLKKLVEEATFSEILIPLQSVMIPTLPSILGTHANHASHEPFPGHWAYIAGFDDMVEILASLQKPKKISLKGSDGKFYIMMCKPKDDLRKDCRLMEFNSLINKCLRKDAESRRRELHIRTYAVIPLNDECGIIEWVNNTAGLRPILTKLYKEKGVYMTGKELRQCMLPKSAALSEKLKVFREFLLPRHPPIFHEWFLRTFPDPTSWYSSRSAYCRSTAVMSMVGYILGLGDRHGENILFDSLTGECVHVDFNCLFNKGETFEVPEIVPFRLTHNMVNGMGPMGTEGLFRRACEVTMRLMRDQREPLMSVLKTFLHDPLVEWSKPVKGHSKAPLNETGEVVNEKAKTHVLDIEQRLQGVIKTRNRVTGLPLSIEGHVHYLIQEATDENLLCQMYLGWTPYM
As for `N#CCc1cnc2c(C(=O)Nc3cnccc3O[C@H]3CCNC3)c(N)nn2c1`, the pKi is above 8.00.
`CC(=O)N1CCN(c2ccncc2NC(=O)c2c(N)nn3cc(F)cnc23)CC1`: the pKi is 6.00 to 8.00.
As for `Nc1nn2cc(F)cnc2c1C(=O)Nc1cncc(F)c1N1CCC(C(=O)N2CCC(N3CCC3)CC2)CC1`, the pKi is above 8.00.
